Read-outs that look alike come from different tables or passages of the source.
Biological target: T1, Androgen Receptor (Homo sapiens, UniProt P10275)
T1 construct: endogenous in cells; host or cells: VCaP cells
T1 sequence (P10275 1-920): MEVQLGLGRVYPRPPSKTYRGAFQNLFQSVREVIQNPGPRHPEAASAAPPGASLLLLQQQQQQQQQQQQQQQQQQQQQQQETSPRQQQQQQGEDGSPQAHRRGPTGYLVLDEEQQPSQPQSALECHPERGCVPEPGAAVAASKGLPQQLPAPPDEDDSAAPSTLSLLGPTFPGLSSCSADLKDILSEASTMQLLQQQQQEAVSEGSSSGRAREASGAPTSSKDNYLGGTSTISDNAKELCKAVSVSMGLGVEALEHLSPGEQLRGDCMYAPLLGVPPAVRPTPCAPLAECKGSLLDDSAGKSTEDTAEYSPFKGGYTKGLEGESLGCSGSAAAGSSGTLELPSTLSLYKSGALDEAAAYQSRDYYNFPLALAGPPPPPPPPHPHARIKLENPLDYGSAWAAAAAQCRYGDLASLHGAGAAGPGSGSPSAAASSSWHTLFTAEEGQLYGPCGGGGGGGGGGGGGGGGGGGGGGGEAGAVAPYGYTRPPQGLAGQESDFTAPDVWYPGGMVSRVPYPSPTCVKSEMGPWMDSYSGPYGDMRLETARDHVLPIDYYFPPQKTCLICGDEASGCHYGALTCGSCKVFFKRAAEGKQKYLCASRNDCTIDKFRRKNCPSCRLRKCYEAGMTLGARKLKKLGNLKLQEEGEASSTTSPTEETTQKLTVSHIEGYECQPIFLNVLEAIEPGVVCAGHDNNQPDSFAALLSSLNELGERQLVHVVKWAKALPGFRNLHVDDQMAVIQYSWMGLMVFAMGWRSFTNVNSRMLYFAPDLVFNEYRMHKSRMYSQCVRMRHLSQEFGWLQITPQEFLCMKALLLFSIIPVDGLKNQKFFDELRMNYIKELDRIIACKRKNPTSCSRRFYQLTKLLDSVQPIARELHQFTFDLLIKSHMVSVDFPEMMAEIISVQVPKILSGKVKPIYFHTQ
Experiment: Androgen Receptor ELISA assay (PathScan AR ELISA) in VCaP cells: AR degradation, Dmax and DC50
Assay type: cell-based
Method in brief: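 VCaP cells in phenol red-free RPMI with 5% charcoal-stripped FBS were grown at least 3 days, then given compound as 7 half-log doses in 0.1% DMSO with 0.1 nM R1881 for 24 h. Lysates went into a sandwich AR ELISA with TMB read at 450 nm.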

[1] = read-out: VCaP DC50; VCaP cells; Table 34
[2] = read-out: VCaP DC50; concentration that caused 50% Androgen Receptor degradation, VCaP cells (Table 32)
[3] = read-out: VCaP DC50; VCaP cells; Table 36
[4] = VCaP cells; Table 36; read-out: VCaP DC50
[5] = VCaP, VCaP cells; Table 36; read-out: VCaP Dmax (%)

Row | SMILES | DC50 [4] [nM] | Dmax [5] [%] | Dmax (VCaP, read-out: VCaP Dmax (%)) [%] | further results
1 | Cc1ncsc1-c1ccc(CNC(=O)[C@@H]2C[C@@H](O)CN2C(=O)[C@@H](NC(=O)CCCOCCCOCCOc2ccc(N3C(=S)N(c4ccc(C#N)c(C(F)(F)F)c4)C(=O)C3(C)C)cc2)C(C)(C)C)cc1 [Example 315] | – | – | 26 to 50 | DC50 [1]: 51 to 500 nM
2 | Cc1ncsc1-c1ccc(CNC(=O)[C@@H]2C[C@@H](O)CN2C(=O)[C@@H](NC(=O)COCCCOCCCCOc2cccc(N3C(=S)N(c4ccc(C#N)c(C(F)(F)F)c4)C(=O)C3(C)C)c2)C(C)(C)C)cc1 [Example 321] | – | – | 26 to 50 | DC50 [1]: < 50 nM
3 | Cc1ncsc1-c1ccc(CNC(=O)[C@@H]2C[C@@H](O)CN2C(=O)[C@@H](NC(=O)COCCCOCCCCCOc2ccc(N3C(=S)N(c4cccc(C(F)(F)F)c4)C(=O)C3(C)C)cc2)C(C)(C)C)cc1 [Example 478] | – | – | – | DC50 (VCaP cells; Table 35; read-out: VCaP DC50): 51 to 500 nM; Dmax (VCaP, VCaP cells; Table 35; read-out: VCaP Dmax (%)): 26 to 50%
4 | Cc1ncsc1-c1ccc(CNC(=O)[C@@H]2C[C@@H](O)CN2C(=O)[C@@H](NC(=O)COCCCCOc2ccc(-c3ccc(N4C(=S)N(c5ccc(C#N)c(C(F)(F)F)c5)C(=O)C4(C)C)cc3)cc2)C(C)(C)C(=O)O)cc1 [Example 546] | – | – | – | DC50 (read-out: VCaP DC50; VCaP cells; Table 35): > 501 nM
5 | Cc1ncsc1-c1ccc(CNC(=O)[C@@H]2C[C@@H](O)CN2C(=O)[C@@H](NC(=O)COCCCCOc2ccc(-c3ccc(N4C(=S)N(c5ccc(C#N)c(C(F)(F)F)c5)C(=O)C4(C)C)cc3)c(F)c2)C(C)(C)C)cc1 [Example 149, (2S,4R)-1-[(2S)-2-(2-{4-[4-(4-{3-[4-cyano-3-(trifluoromethyl)phenyl]-5,5-dimethyl-4-oxo-2-sulfanylideneimidazolidin-1-yl}phenyl)-3-fluorophenoxy]butoxy}acetamido)-3,3-dimethylbutanoyl]-4-hydroxy-N-{[4-(4-methyl-1,3-thiazol-5-yl)phenyl]methyl}pyrrolidine-2-carboxamide] | – | – | > 71 | DC50 [2]: < 50 nM
6 | Cc1ncsc1-c1ccc([C@H](CO)NC(=O)[C@@H]2C[C@@H](O)CN2C(=O)[C@@H](NC(=O)COCCN2C3CCC2CN(c2ccc(C(=O)N[C@H]4C(C)(C)[C@H](Oc5ccc(C#N)c(Cl)c5)C4(C)C)cn2)C3)C(C)(C)C)cc1 [Example 821, N-((1r,3r)-3-(3-chloro-4-cyanophenoxy)-2,2,4,4-tetramethylcyclobutyl)-6-(8-(2-(2-(((S)-1-((2S, 4R)-4-hydroxy-2-(((R)-2-hydroxy-1-(4-(4-methylthiazol-5-yl)phenyl)ethyl)carbamoyl)pyrrolidin-1-yl)-3,3-dimethyl-1-oxobutan-2-yl)amino)-2-oxoethoxy)ethyl)-3,8-diazabicyclo [3.2.1]octan-3-yl) nicotinamide] | – | – | > 71 | DC50 [3]: < 50 nM
7 | Cc1ncsc1-c1ccc([C@H](C)NC(=O)[C@@H]2C[C@@H](O)CN2C(=O)C(C(C)C)n2cnc(-c3ccnc(N4CC[C@H](Oc5ccc(N6C(=S)N(c7ccc(C#N)c(C(F)(F)F)c7)C(=O)C6(C)C)cc5)C4)c3)c2)cc1 (stereo partly drawn) [Example 617, 1-(2-(4-(2-(3-(4-(3-(4-cyano-3-(trifluoromethyl)phenyl)-5,5-dimethyl-4-oxo-2-thioxoimidazolidin-1-yl)phenoxy)pyrrolidin-1-yl)pyridin-4-yl)-1H-imidazol-1-yl)-3-methylbutanoyl)-4-hydroxy-N-(1-(4-(4-methylthiazol-5-yl)phenyl)ethyl)pyrrolidine-2-carboxamide] | – | – | < 25 | DC50 [3]: > 501 nM
8 | Cc1ncsc1-c1ccc(CNC(=O)[C@@H]2C[C@@H](O)CN2C(=O)[C@@H](NC(=O)COCCCCNc2ccc(C(=O)N[C@H]3C(C)(C)[C@H](Oc4ccc(C#N)c(Cl)c4)C3(C)C)cn2)C(C)(C)C)cc1 [Example 416] | – | – | – | DC50 (VCaP cells; Table 34; read-out: VCaP DC50): 51 to 500 nM; Dmax (VCaP, VCaP cells; Table 34; read-out: VCaP Dmax (%)): 26 to 50%
9 | Cc1ncsc1-c1ccc(CNC(=O)[C@@H]2C[C@@H](O)CN2C(=O)[C@@H](NC(=O)COc2cccc(Oc3ccc(-c4ccc(N5C(=S)N(c6ccc(C#N)c(C(F)(F)F)c6)C(=O)C5(C)C)cc4)cc3)c2)C(C)(C)C)cc1 [Example 114, (2S,4R)-1-[(2S)-2-(2-{3-[4-(4-{3-[4-cyano-3-(trifluoromethyl)phenyl]-5,5-dimethyl-4-oxo-2-sulfanylideneimidazolidin-1-yl}phenyl)phen-oxy]phenoxy}acetamido)-3,3-dimethylbutanoyl]-4-hydroxy-N-{[4-(4-methyl-1,3-thiazol-5-yl)phenyl]methyl}pyrrolidine-2-carboxamide] | – | – | 51 to 70 | DC50 [2]: < 50 nM

The next lines start with results.

Row | DC50 [4] [nM] | Dmax [5] [%] | SMILES | Dmax (VCaP, read-out: VCaP Dmax (%)) [%] | further results
10 | > 501 | < 25 | CO[C@@H]1C[C@@H](C(=O)N(C)Cc2ccc(-c3scnc3C)cc2)N(C(=O)[C@@H](N(C)C(=O)COCCCCCN(C)c2ccc(C(=O)N(C)[C@H]3C(C)(C)[C@H](Oc4ccc(C#N)c(C(F)(F)F)c4)C3(C)C)nc2)C(C)(C)C)C1 [Example 709, N-((1r,3r)-3-(4-cyano-3-(trifluoromethyl)phenoxy)-2,2,4,4-tetramethylcyclobutyl)-5-((5-(2-(((S)-1-((2S,4R)-4-methoxy-2-(methyl(4-(4-methylthiazol-5-yl)benzyl)carbamoyl)pyrrolidin-1-yl)-3,3-dimethyl-1-oxobutan-2-yl)(methyl)amino)-2-oxoethoxy)pentyl)(meth-yl)amino)-N-methylpicolinamide] | – | –
11 | < 50 | > 71 | Cc1ncsc1-c1ccc(CNC(=O)[C@@H]2C[C@@H](O)CN2C(=O)[C@H](C(C)C)N2Cc3ccccc3C2=O)c(OCCN2CCN(c3ccc(C(=O)N[C@H]4C(C)(C)[C@H](Oc5ccc(C#N)c(C(F)(F)F)c5)C4(C)C)cn3)CC2)c1 [Example 733, N-((1r,3r)-3-(4-cyano-3-(trifluoromethyl)phenoxy)-2,2,4,4-tetramethylcyclobutyl)-6-(4-(2-(2-(((2S,4R)-4-hydroxy-1-((S)-3-methyl-2-(1-oxoisoindolin-2-yl)butanoyl)pyrrolidine-2-carboxamido)methyl)-5-(4-methylthiazol-5-yl)phenoxy)ethyl)piper-azin-1-yl)nicotinamide] | – | –
12 | > 501 | 26 to 50 | Cc1ncsc1-c1ccc([C@H](C)NC(=O)[C@@H]2C[C@@H](O)CN2C(=O)[C@@H](NC(=O)CN2CCN(CCCOCc3cc(C(=O)N[C@@H](C)Cn4ccc(-c5ccc(C#N)c(C(F)(F)F)c5)n4)n[nH]3)CC2)C(C)(C)C)cc1 [Example 766] | – | –
13 | 51 to 500 | 51 to 70 | Cc1ncsc1-c1ccc([C@H](C)NC(=O)[C@@H]2C[C@@H](O)CN2C(=O)[C@@H](NC(=O)CCCCCCCCc2ccc(C(=O)N[C@H]3C(C)(C)[C@H](Oc4ccc(C#N)c(Cl)c4)C3(C)C)cc2)C(C)(C)C)cc1 [Example 756, (2S,4R)-1-((S)-2-(9-(4-(((1r,3r)-3-(3-chloro-4-cyanophenoxy)-2,2,4,4-tetramethylcyclobutyl)carbamoyl)phenyl)nonan-amido)-3,3-dimethylbutanoyl)-4-hydroxy-N-((S)-1-(4-(4-methylthiazol-5-yl)phenyl)ethyl)pyrrolidine-2-carboxamide] | – | –
14 | > 501 | < 25 | CC(C)C[C@H](OCCN1CCN(c2ccc(C(=O)N[C@H]3C(C)(C)[C@H](Oc4ccc(C#N)c(Cl)c4)C3(C)C)cn2)CC1)C(=O)N[C@H](C(=O)N1C[C@H](O)C[C@H]1C(=O)NCc1ccc(Cl)cc1)C(C)C [Example 726, N-((1r,3r)-3-(3-chloro-4-cyanophenoxy)-2,2,4,4-tetramethylcyclobutyl)-6-(4-(2-(((S)-1-(((S)-1-((2S,4R)-2-((4-chlorobenzyl)carbamoyl)-4-hydroxypyrrolidin-1-yl)-3-methyl-1-oxobutan-2-yl)amino)-4-methyl-1-oxopentan-2-yl)oxy)ethyl)piperazin-1-yl)nicotinamide] | – | –

From US11427548B2 (Arvinas Operations, Inc., priority 2015, dated 2022)
